Results taken from ChEMBL document CHEMBL1148733, “Novel N7- and N1-substituted cGMP derivatives are potent activators of cyclic nucleotide-gated channels” (J Med Chem, 2007).

Experiments:
HEK293 = conditions: Homo sapiens
Description: Activation of olfactory CNG A2A41b channel expressed in HEK293 cells assessed as effect on half maximal current

Oocyte = assay: Activation of retinal rod […] CNG A1B1 channel expressed in Xenopus oocytes assessed as effect on half maximal current; format: cell-based; conditions: Homo sapiens

SMILES	K1/2 (HEK293) [µM]	K1/2 (Oocyte) [µM]
Nc1ncnc2c1nc(Sc1ccc(Cl)cc1)n2[C@@H]1O[C@@H]2COP(=O)(O)O[C@H]2[C@H]1O	0.55	
Nc1nc2c(nc(SCCS(=O)(=O)c3ccccc3)n2[C@@H]2O[C@@H]3COP(=O)(O)O[C@H]3[C@H]2O)c(=O)[nH]1	0.21	
CS(=O)(=O)CCSc1nc2c(=O)[nH]c(N)nc2n1[C@@H]1O[C@@H]2COP(=O)(O)O[C@H]2[C@H]1O	0.37	
Nc1nc2c([nH]c(=S)n2[C@@H]2O[C@@H]3COP(=O)(O)O[C@H]3[C@H]2O)c(=O)[nH]1	0.18	14
CO[C@@H]1[C@@H]2OP(=O)(O)OC[C@H]2O[C@H]1n1c(Sc2ccc(Cl)cc2)nc2c(N)ncnc21	22	
CO[C@@H]1[C@@H]2OP(=O)(O)OC[C@H]2O[C@H]1n1cnc2c(=O)n(C)c(N)nc21	290	
CCCC(=O)O[C@@H]1[C@@H]2OP(=O)(O)OC[C@H]2O[C@H]1n1cnc2c(=O)[nH]c(N)nc21	88	
Nc1nc2c(ncn2[C@@H]2O[C@@H]3COP(=O)(O)O[C@H]3[C@H]2O)c(=O)[nH]1	1.1	41
Nc1nc2c(c(=O)[nH]1)[n+]1c(n2[C@@H]2O[C@@H]3COP(=O)(O)O[C@H]3[C@H]2O)SCCC1	10	
Nc1nc2c(nc(Sc3ccc(Cl)cc3)n2[C@@H]2O[C@@H]3COP(=O)(O)O[C@H]3[C@H]2O)c(=O)[nH]1	0.073	1
CO[C@@H]1[C@@H]2OP(=O)(O)OC[C@H]2O[C@H]1n1cnc2c(=O)[nH]c(N)nc21	35	
CCCC(=O)Nc1nc2c(ncn2[C@@H]2O[C@@H]3COP(=O)(O)O[C@H]3[C@H]2O)c(=O)[nH]1	22	
CS(=O)(=O)CCn1c(=S)n([C@@H]2O[C@@H]3COP(=O)(O)O[C@H]3[C@H]2O)c2nc(N)[nH]c(=O)c21	0.11	
Nc1nc2c(nc(Sc3ccc(Cl)cc3)n2[C@@H]2O[C@@H]3COP(=O)(O)O[C@H]3[C@H]2O)c(=O)n1CCS(=O)(=O)c1ccccc1	0.38	12
Nc1nc2c(c(=O)[nH]1)n(CCS(=O)(=O)c1ccccc1)c(=S)n2[C@@H]1O[C@@H]2COP(=O)(O)O[C@H]2[C@H]1O	0.082	4.1
